Where two headings read alike, the source gives them in different places.
Legend:
[1] = tested on: human neonatal epidermal keratinocyte (Cryo NHEK-Neo); assay: UV-B irradiation-induced cell damage in keratinocytes, D-amino acids and cysteine, Alamar Blue (Example 4); format: cell-based; conditions: UV-B 25 mJ/cm^2; 100 μM before and after irradiation; without the amino acid about 500 to 600
Experimental: The cell employed was a commercially available human neonatal epidermal keratinocyte (Cryo NHEK-Neo, Sanko-Junyaku Co., Ltd.). […] Thereafter, it was cultured for 2 days in 2 mL of the ordinary medium 3 containing 100 μM D-alanine, D-serine, D-hydroxyproline, D-aspartic acid, D-cysteine or L-cysteine. As a control, the ordinary medium 3 containing PBS instead of the D-amino acid was added to the ordinary medium 3.
Thereafter, the fluorescent intensity was measured by the method described in Example 1.

[2] = tested on: human dermal fibroblast derived from a patient having xeroderma pigmentosum (Group A) (XP30S (SVT)); assay: UV-A irradiation-induced cell damage in XP cells, pretreatment, Alamar Blue (Example 5); format: cell-based; conditions: UV-A 1 J/cm^2; pretreatment 0.1 μM; non-UV irradiating condition about 690, negative control about 630
Experimental: A human dermal fibroblast derived from a patient having xeroderma pigmentosum (Group […]), hereinafter referred to as “XP cell”) which was obtained from Japan Health Science Foundation was employed and cultured by the same method described in Example 3. […] The UV dose was measured using UV RADIOMETER […] Corporation).

[3] = tested on: human neonatal dermal fibroblast (Cryo NHDF-Neo); assay: UV-A irradiation-induced cell damage in fibroblasts, pretreatment, Alamar Blue (Example 3); conditions: UV-A 22.5 J/cm^2; for fluorescent intensity: control about 1,100
[4] = tested on: human neonatal epidermal keratinocyte (Cryo NHEK-Neo); assay: UV-B irradiation-induced cell damage in keratinocytes, Alamar Blue (Example 1); format: cell-based; conditions: UV-B 75 mJ/cm^2; 0.1 to 100 μM, pretreatment or posttreatment; non-irradiated about 22,000, irradiated 5,000 to 7,000
Experimental: The cell employed was a commercially available human neonatal epidermal keratinocyte (Cryo NHEK-Neo, Sanko-Junyaku Co., Ltd.).
Thereafter, the culture medium was supplemented with Alamar Blue (trade mark, Biosource International Inc.) at a final concentration of 10%, and its supernatant was examined for the fluorescent intensity 3 hours later with an excitation wavelength of 544 nm and a fluorescent wavelength of 590 nm as described by Ahmed S. A. et al. (J. Immunol. Method. 170, 211-224 (1994)) and in accordance with the manufacture's instruction.

[5] = tested on: human neonatal dermal fibroblast (Cryo NHDF-Neo); conditions: for fluorescent intensity / alleviation of the cell damage: 0.1 μM; for fluorescent intensity: Mean ± SD, N = 4-6; for alleviation of the cell damage: UV-A 12.5 J/cm^2 and 15 J/cm^2
Experimental: The cell employed was a commercially available human neonatal dermal fibroblast (Cryo NHDF-Neo, Sanko-Junyaku Co., Ltd.). This cell was inoculated at 2×10^5 cells/mL to a commercially available culture dish of 35 mm in diameter (BD FALCON 353001, Beckton Dickinson Japan), where it was cultured in a commercially available cell culture medium (D-MEM (1 g/L glucose, Wako Pure Chemical Industries, Ltd.) supplemented with 10% fetal bovine serum (hereinafter referred to as “ordinary medium 2”). This cell was cultured for about 24 hours in a 5% CO2 and saturated water vapor atmosphere at 37° C.
Thereafter, the culture medium for culturing the cell described above was switched to 1 mL of a BSO medium containing a glutathione biosynthesis inhibitor BSO (L-buthionine-(S,R)-sulfoximine, Wako Pure Chemical Industries, Ltd.) at 1×10^−3%, where the culture was conducted for about 24 hours in a 5% CO2 and saturated water vapor atmosphere at 37° C. The BSO medium described above was prepared by a 200-fold dilution of a stock solution containing 0.2% BSO in ethyl alcohol with the ordinary medium 2 described above.
[…] was dissolved in a distilled water at 2×10^−3%, and the resultant solution was subjected to a 200-fold dilution (final concentration: 1×10^−5%) with a phosphate buffer solution PBS containing calcium ion and magnesium ion (PBS+) to obtain a medium (hereinafter referred to as “UV irradiation medium”), which was warmed preliminarily before use.
Before UV-A irradiation, the culture medium was replaced with 1 mL of the UV irradiation medium described above. […] The UV dose was measured using UV RADIOMETER UVR-3036/S (Topcon Corporation).
After UV irradiation, the cell was returned to the ordinary medium 2 described above where it was cultured in a 5% CO2 and saturated water vapor atmosphere at 37° C. for 21 hours. For examining the effect of adding proline after UV irradiation (hereinafter referred to as “posttreatment”), this 21-hour cultured medium was supplemented with 0.01 to 1000 μM L- or D-proline.
Thereafter, the fluorescent intensity was measured by a method described in Example 1.

[6] = UV irradiation amount 0 J/cm^2, control 12380 ± 21
[7] = UV-A 12.5 J/cm^2, control 2503 ± 629
[8] = UV-A 15 J/cm^2, control 1018 ± 89

SMILES: C[C@@H](N)C(=O)O [D-alanine]
- fluorescent intensity of Alamar Blue [1]: about 570

SMILES: N[C@H](CC(=O)O)C(=O)O [D-aspartic acid]
- fluorescent intensity of Alamar Blue [1]: about 600

SMILES: N[C@H](CS)C(=O)O [D-cysteine]
- fluorescent intensity of Alamar Blue [1]: about 700
- fluorescent intensity [2]: about 638

SMILES: N[C@H](CCC(=O)O)C(=O)O [D-glutamic acid]
- fluorescent intensity ([3]; pretreatment 1 μM): about 1,700
- fluorescent intensity [2]: about 675
- cell damage alleviating effect (fluorescent intensity of Alamar Blue) [4]: the cell damage was alleviated

SMILES: O=C(O)[C@H]1C[C@H](O)CN1 [D-hydroxyproline]
- fluorescent intensity of Alamar Blue [1]: about 550

SMILES: O=C(O)[C@H]1CCCN1 [D-proline]
- fluorescent intensity ([3]; pretreatment 0.1 μM): about 1,750
- fluorescent intensity [2]: about 664
- fluorescent intensity [5, 6]: 12270 ± 68 ^
- fluorescent intensity [5, 7]: 4615 ± 1218 *^1
- alleviation of the cell damage [5]: the cell damage was alleviated
- fluorescent intensity [5, 8]: 2365 ± 648 *^2
- cell damage alleviating effect (fluorescent intensity of Alamar Blue) ([5]; UV-A 15 J/cm^2 and 22.5 J/cm^2, posttreatment, non-irradiated about 12,000, irradiated about 5,000 and about 3,000): the cell damage was alleviated

SMILES: N[C@H](CO)C(=O)O [D-serine]
- fluorescent intensity of Alamar Blue [1]: about 490

SMILES: N[C@@H](CS)C(=O)O [L-cysteine]
- fluorescent intensity of Alamar Blue [1]: about 700
- fluorescent intensity [2]: about 688

SMILES: N[C@@H](CCC(=O)O)C(=O)O [L-glutamic acid]
- cell damage alleviating effect ([3]; pretreatment 1 μM): no cell damage alleviating effect was observed
- fluorescent intensity ([3]; pretreatment 1 μM): about 1,100
- fluorescent intensity [2]: about 658
- cell damage alleviating effect (fluorescent intensity of Alamar Blue) [4]: No cell damage alleviating effect was observed

SMILES: O=C(O)[C@@H]1CCCN1 [L-proline, reference compound]
- fluorescent intensity [2]: about 583
- fluorescent intensity [5, 6]: 12211 ± 77
- fluorescent intensity [5, 7]: 2877 ± 834
- alleviation of the cell damage [5]: Almost no alleviation of the cell damage
- fluorescent intensity [5, 8]: 1552 ± 320
- alleviating effect on ultraviolet irradiation-induced damage ([5]; summary statement referring to the Examples): no alleviating effect on ultraviolet irradiation-induced damage

Reference: patent US8735442B2, “Composition for alleviating ultraviolet radiation-induced damage” (priority 2009, dated 2014)
